Experimental data published in US20190211317A1, “PEPTIDES AND NANOPARTICLES FOR INTRACELLULAR DELIVERY OF GENOME-EDITING MOLECULES” (Aadigen, LLC, priority 2016, published 2019).

Tested on: endogenous EMX1 and HPRT genes in primary human cardiac fibroblasts and primary human hepatocytes
Assay: EMX1 and HPRT editing in primary human cells (T7E1 assay)
Type: cell-based
Conditions: for mean indel frequencies: both genes
Protocol: ADGN-100 peptides were also evaluated for cellular delivery of multiple RGEN:gRNA complexes targeting endogenous EMX1 and HPRT genes in primary human cardiac fibroblasts and primary human hepatocytes. The CAS9/gRNA complexes contained either CAS9 protein or mRNA encoding the CAS9 protein and a gRNA targeting either EMX1 or HPRT. Human primary cardiac fibroblasts and human primary hepatocytes were freshly obtained and grown in flasks pre-coated with a gelatin-based coating solution and incubated in Culture Complete Growth Medium for 3 days before expansion and treatment. […] Non-Homologous End Joining (NHEJ) was analyzed 72 hours after transfection by the T7E1 assay and compared to delivery using RNAiMAX lipid methods. The toxicity was analyzed for all conditions using the MTT assay.
CAS9 protein was preloaded with purified gRNA-GFP at a molar ratio of 1:1 and incubated for 10 min prior to forming complexes with ADGN peptides.
The following protocol was used for both cell types. Cells were cultured to about 70% confluence at the time of transfection. Cells were maintained in high glucose DMEM media with 10% serum. Before transfection, cells were washed with DMEM twice and resuspended in 0.2 ml of complex solution (16 μl complex+184 μl OPTiMEM) mixed gently and incubated for 10 min at 37° C. 0.8 mL of fresh OPTiMEM (high glucose) was added and cells were incubated for 20 min at 37° C. […] Cells were returned to the incubator at 37° C. and assayed at 72 hours post transfection.
As a positive control, complexes were delivered using RNAiMAX (Invitrogen Thermo Fisher). CAS9-induced double-strand break formation followed by repair throughout the non-homologous end joining (NHEJ) system was analyzed at 72 hours by the T7E1 assay and quantified using a Fragment Analyzer System. The indel frequencies reported for the EMX1 and HPRT genes are an average of 3 separate experiments. Cytotoxicity was analyzed using the MTT assay.

CC(C)C[C@H](NC(=O)[C@H](CCCNC(=N)N)NC(=O)[C@H](Cc1c[nH]c2ccccc12)NC(=O)[C@H](CCCNC(=N)N)NC(=O)[C@H](Cc1c[nH]c2ccccc12)NC(=O)CNC(=O)[C@H](C)NC(=O)[C@H](CO)NC(=O)[C@H](CCCNC(=N)N)NC(=O)[C@H](Cc1c[nH]c2ccccc12)NC(=O)[C@H](CCCCN)NC(=O)CCN)C(=O)N[C@@H](Cc1c[nH]c2ccccc12)C(=O)N[C@@H](CCCNC(=N)N)C(=O)N[C@H](C(=O)N[C@@H](CCCNC(=N)N)C(=O)N[C@@H](CO)C(=O)N[C@@H](Cc1c[nH]c2ccccc12)C(=O)N[C@@H](CO)C(=O)N[C@@H](CCCNC(=N)N)C(=O)O)C(C)C [ADGN-100a]
more potent than RNAiMAX: 3-4 folds | Mean indel Frequency ± S.E.M (EMX1, Fibroblasts, 20 nM): 65 ± 4% | Mean indel Frequency ± S.E.M (EMX1, Fibroblasts, 50 nM): 67 ± 5% | Mean indel Frequency ± S.E.M (EMX1, Fibroblasts, CAS9/sgRNA 10 nM): 61 ± 5% | Mean indel Frequency ± S.E.M (EMX1, Hepatocytes, 10 nM): 55 ± 6% | Mean indel Frequency ± S.E.M (EMX1, Hepatocytes, 20 nM): 58 ± 5% | Mean indel Frequency ± S.E.M (EMX1, Hepatocytes, 50 nM): 61 ± 5% | Mean indel Frequency ± S.E.M (HPRT (printed HPR/HPRI), Fibroblasts, 10 nM): 62 ± 5% | Mean indel Frequency ± S.E.M (HPRT, Fibroblasts, 20 nM): 68 ± 4% | Mean indel Frequency ± S.E.M (HPRT, Fibroblasts, 50 nM): 70 ± 5% | Mean indel Frequency ± S.E.M (HPRT, Hepatocytes, 10 nM): 54 ± 6% | Mean indel Frequency ± S.E.M (HPRT, Hepatocytes, 20 nM): 56 ± 5% | Mean indel Frequency ± S.E.M (HPRT, Hepatocytes, 50 nM): 57 ± 5% | mean indel frequencies (primary fibroblasts, 20 nM): more than 60% | mean indel frequencies (primary hepatocytes, 20 nM): > 55%
